Data taken from patent US11325943B2, “Crystalline salt forms of SBT-20” (priority 2017, dated 2022).
Where two headings read alike, the source gives them in different places. Non-standard residues stand in square brackets, D forms with d. Residues, ends and D or L forms follow the SMILES beside them.

Legend:
[1] = Exposure of amorphous salts to humidity (saturated NaCl solution, 75% RH at room temperature) for stability assessment; assay type: physicochemical; details: for behaviour on exposure to 75% RH: a week of exposure (repeat)
From the text: Although amorphous, salts that were produced earlier were exposed to Humidity through saturated NaCl solution (75% RH at room temperature) for stability assessment.
Other salts of SBT-020 that were made during the initial screening that were missing in Table 13 were exposed to 75% RH. The missing salts were Maleate, Salicylate, Tartarate (repeat), Succinate and Phosphate (repeat).

[2] = Qualitative solubility in water; assay type: physicochemical; details: at RT
From the text: No signs of acetic acid were observed.

[3] = counter-ions studied during the initial salt screening; cited from earlier work

Compound	behaviour on exposure to 75% RH [1]	pKa1 [3]	also measured
Phosphate	became wet, though they did not deliquesce even after a week		physical stability upon humidity exposure [1]: demonstrated physical stability upon humidity exposure
N=C(N)NCCC[C@@H](NC(=O)[C@@H](N)Cc1ccccc1)C(=O)N[C@@H](Cc1ccccc1)C(=O)N[C@@H](CCCCN)C(N)=O [Tosylate] (H-F[dR]FK-NH2)			solubility [2]: > 100 mg/mL; physical stability upon humidity exposure ([1]; saturated NaCl solution, 75% RH at room temperature, amorphous salts): demonstrated physical stability upon humidity exposure; physical stability upon humidity exposure ([1]; saturated NaCl solution, 75% RH at room temperature, amorphous salts, listed as tosylate): best stability under humidity exposure
O=C(O)CC(O)C(=O)O (stereo not shown) [Malic acid]		3.4	pKa2 [3]: 5.2
Tartarate	became wet, though they did not deliquesce even after a week		
Br [Hydrobromic acid]		−8	
O=S(=O)(O)c1ccccc1 [Benzene sulfonic acid]		−2.8	
